Experimental data from patent US7902190B2, “Indol derivatives, the method for preparing thereof and composition for the prevention and treatment of metabolic disorder containing the same as an active ingredient” (Korea Research Institute of Bioscience and Biotechnology, priority 2006, dated 2011).
“Also recorded” adds a separate entry of the source.

Experiments:
[1] = test system: DGAT; test: Assay for inhibitory activity against DGAT ([14C]triacylglycerol formation, rat microsomal protein as enzyme source); type: biochemical; conditions: for DGAT (inhibition % in 5 μM) / DGAT (inhibition % in 25 μM): rat microsomal protein as enzyme source; for inhibitory activity against DGAT (in words): rat hepatic microsomal protein, 1,2-diacylglycerol and [14C]palmitoyl-CoA as substrates
Description: The following experiment was performed in order to examine the inhibitory activity of the indole derivatives of the present invention against DGAT. After enzymatic reaction between two substrates, 1,2-diacylglycerol (Sigma, D0138) and [^14C]palmitoyl-CoA (Amersham, CFA583), with the microsomal protein of rats serving as an enzyme source in accordance with Coleman et al, Methods Enzymol., 98-103, 1992, the resulting product [^14C] triacylglycerol was measured for radioactivity.
In detail, to a reaction buffer (175 mM Tris-HCl, pH 8.0, 20 μl bovine serum albumin (10 mg/ml), 100 mM MgCl2, 30 μM [^14C] palmitoyl-CoA (0.02 μCi, Amersham) and 200 μM 1,2-dioleoyl glycerol) was added 10 μl of a solution of the samples in dimethylsulfoxide (DMSO) and then 100-200 μl of an isolated microsomal protein, followed by reaction at 25° C. for 10 min. The reaction was terminated with 1.5 ml of a mixture of 80:20:2 2-propanol:heptane:water (v:v:v). Thereafter, the [^14C] triacylglycerol thus formed was separated. In this regard, 1 ml of heptane and 0.5 ml of distilled water were added to the reaction mixture, which was then shaken. 1 ml of the supernatant thus formed was mixed with 2 ml of an alkaline ethanol solution (ethanol:0.5 N sodium hydroxide:water=50:10:40, v:v:v), followed by shaking. After it was recovered, 0.65 ml of the supernatant thus formed was measured for radioactivity using an LSC (liquid scintillation counter). The inhibitory activity against DGAT was calculated according to the following Mathematical Formula 1.
T: Cpm of a test group in which a sample was added to an enzymatic buffer,
C: Cpm of a control in which no samples were added to an enzymatic buffer,
B: Cpm of a control in which a sample was added in the absence of any enzyme source.

[2] = test system: DGAT; test: Assay for inhibitory effect on DGAT in cell (triglyceride production from [14C]acetate in HepG2 cells); type: cell-based, human; conditions: 10 μM; for Production Yield of Triglyceride (%): DMSO control taken as 100
Description: The effect of the indole derivatives of the present invention on DGAT was examined with HepG2 cells, hepatic cells derived from the human liver, as follows.
HepG2 cells, purchased from ATCC, were cultured in MEM (Minimum Essential Medium, 2 mM L-glutamine, Earle's BSS adjusted to contain 1.5 g/L sodium bicarbonate, 0.1 mM nonessential amino acids, and 1 mM sodium pyruvate), supplemented with 10% fetal bovine serum (FBS) and 1% antibiotics (100 U/ml penicillin and 100 µg/ml streptomycin) at 37° C. in a 5% CO2 incubator.
Intracellular DGAT activity was represented by the amount of triglycerides produced in the cultured HepG2 cells while the compounds (1, 6, 10, 11 and 15) of Chemical Formula 1 were assayed for inhibitory activity against DGAT by measuring the change in intracellular triglyceride production after the addition thereof.
Cells were plated at a density of 1×10^6 cell/ml per well into 24-well plates and incubated for 24 hours. Then, the medium was exchanged with FBS-free MEM. Thereafter, 0.2 mCi of [^14C]acetate (Amersham) was added as a substrate to the cells, followed by incubation for 18 hours. The production of triglycerides was catalyzed by DGAT so that DGAT activity was determined by the amount of the triglyceride product, which could be measured using radioactivity. For use, the samples were dissolved in dimethyl sulfoxide (DMSO). In a control, triglycerides were synthesized using DMSO without any sample, with the production yield thereof taken as 100.
The amount of the triglyceride products synthesized was determined as follows. […] 1 ml of the extract was concentrated with nitrogen gas. The total lipid residue thus formed was dissolved in an organic solvent mixture (chloroform:methanol=2:1) and loaded dropwise onto a thin layer chromatography plate (TLC; silica gel 60F254, 0.5 mm, Merck) using a mixture of 80:20:1 hexane:diethylether:acetic acid (v:v:v) as a developing solvent. After the separation of triglycerides (Rf value: 0.4) on TLC, the plate was brought into contact with an autoradiographic film for three hours, followed by image analysis (BAS-1500, Fuji Photo Film Co. Ltd.) to determine the [^14C] radioactivity of the triglycerides. The cells left after the extraction were suspended in 0.3 ml of a 0.1 N sodium hydroxide solution to measure the cellular protein concentration thereof.
The empirical values were obtained by dividing triglyceride radioactivity by protein level, with correction for experimental errors between test groups.

[3] = test system: SPF ICR mice; test: Single-dose oral acute toxicity, SPF ICR mice; type: in vivo, mouse
Description: In addition, the compounds of the present invention were orally administered once at a dose of as high as 2,000 mg/kg into mice. In this regard, 7-week-old male SPF ICR mice (Dae Han Biolink Co. Ltd.) were acclimated to a new environment for one week and then, at 8 weeks of age, were divided into two groups of three. The test group was orally administered once with a dose of 2 g/kg of Compound 10 in a 0.5% CMC solution, while the control was administered with a 0.5% CMC (carboxymethyl cellulose) solution alone. They were monitored for death, clinical signs, change in body weight and the like for a couple of weeks. Autopsies were performed to examine the abnormality of organs.

DGAT (inhibition % in 5 μM) [1]	DGAT (inhibition % in 25 μM) [1]	SMILES	biosynthesis of triglyceride in comparison with the control (in words) [2]	Production Yield of Triglyceride (%) [2]	further results
−5.29%	−3.11%	O=C(/C=C/c1c[nH]c2ccccc12)Nc1cccc(C(=O)NCCN2CCCCC2)c1 [Compound 7, 3-(3-1H-indol-3-yl-acryloylamino)-N-(2-piperidin-1-yl-ethyl)-benzamide]	–	–	–
–	19.36%	NC(=O)c1cccc(NC(=O)/C=C/c2c[nH]c3ccccc23)c1 [Compound 2, 3-(3-1H-indol-3-yl-acryloylamino)-benzamide]	–	–	–
3.06%	2.05%	O=C(/C=C/c1c[nH]c2ccccc12)Nc1cccc(C(=O)NCCCN2CCOCC2)c1 [Compound 8, 3-(3-1H-indol-3-yl-acryloylamino)-N-(3-morpholin-4-yl-propyl)-benzamide]	–	–	–
−10.09%	39.82%	CC(=O)n1cc(/C=C/C(=O)Nc2cccc(C(=O)NCc3ccco3)c2)c2ccccc21 [Compound 16, 3-[3-(1-Acetyl-1H-indol-3-yl)-acryloylamino]-N-furan-2-ylmethyl-benzamide]	–	–	–
43.19%	50.89%	O=C(/C=C/c1cn(S(=O)(=O)Cc2ccccc2)c2ccccc12)Nc1cccc(C(=O)NCc2ccco2)c1 [Compound 14]	–	–	inhibitory activity against DGAT (in words) [1]: potent inhibitory activity against DGAT in a dose-dependent manner
–	11.52%	O=C(/C=C/c1c[nH]c2ccccc12)Nc1cccc(C(=O)O)c1 [Compound 6, 3-(3-1H-indol-3-yl-acryloylamino)-benzoic Acid]	produced smaller amounts of triglycerides than did the control	92.5 ± 6.7%	–
54.09%	64.13%	O=C(/C=C/c1cn(Cc2ccccc2)c2ccccc12)Nc1cccc(C(=O)NCc2ccco2)c1 [Compound 11, 3-[3-(1-Benzyl-1H-indol-3-yl)-acryloylamino]-N-furan-2-ylmethyl-benzamide]	produced smaller amounts of triglycerides than did the control; also recorded: highly inhibit the biosynthesis of triglyceride	55.5 ± 7.2%	inhibitory activity against DGAT (in words) [1]: potent inhibitory activity against DGAT in a dose-dependent manner; inhibition of the biosynthesis of triglycerides [2]: 44.5%
–	4.66%	NC(=O)c1cccc(NC(=O)CCc2c[nH]c3ccccc23)c1 [Compound 1, 3-(3-1H-indol-3-yl-propionylamino)-benzamide]	produced smaller amounts of triglycerides than did the control	95.5 ± 5.7%	–
−11.04%	−0.38%	CN(C)CCn1cc(/C=C/C(=O)Nc2cccc(C(=O)NCc3ccco3)c2)c2ccccc21 [Compound 12, 3-{3[1-(2-Dimethylamino-ethyl)-1H-indol-3-yl]-acryloylamino}-N-furan-2-ylmethyl-benzamide]	–	–	–
–	18.72%	COC(=O)c1cccc(NC(=O)/C=C/c2c[nH]c3ccccc23)c1 [Compound 4, 3-(3-1H-indol-3-yl-acryloylamino)-benzoic Acid Methyl Ester]	–	–	–
−0.95%	53.15%	CC(C)(C)OC(=O)Cn1cc(/C=C/C(=O)Nc2cccc(C(=O)NCc3ccco3)c2)c2ccccc21 [Compound 13, [3-(2-{3-[(Furan-2-ylmethyl)-carbamoyl]-phenylcarbamoyl}-vinyl)-indol-1-yl]-acetic acid-t-butyl Ester]	–	–	–
40.88%	49.88%	O=C(/C=C/c1cn(S(=O)(=O)c2cccs2)c2ccccc12)Nc1cccc(C(=O)NCc2ccco2)c1 [Compound 15, N-furan-2-ylmethyl-3-[3-[1-(thiophene-2-sulfonyl)-1H-indol-3-yl]-acryloylamino]-benzamide]	produced smaller amounts of triglycerides than did the control; also recorded: highly inhibit the biosynthesis of triglyceride	61.5 ± 7.1%	inhibitory activity against DGAT (in words) [1]: potent inhibitory activity against DGAT in a dose-dependent manner; inhibition of the biosynthesis of triglycerides [2]: 38.5%
2.72%	13.24%	O=C(/C=C/c1c[nH]c2ccccc12)Nc1cccc(C(=O)NCc2ccco2)c1 [Compound 9, N-furan-2-ylmethyl-3-(3-1H-indol-3-yl-acryloylamino)-benzamide]	–	–	–
–	0.08%	O=C(CCc1c[nH]c2ccccc12)Nc1cccc(C(=O)O)c1 [Compound 5, 3-(3-1H-indol-3-yl-propionylamino)-benzoic Acid]	–	–	–

SMILES	DGAT (inhibition % in 5 μM) [1]	DGAT (inhibition % in 25 μM) [1]	biosynthesis of triglyceride in comparison with the control (in words) [2]	Production Yield of Triglyceride (%) [2]	further results
CC(C)(C)OC(=O)n1cc(/C=C/C(=O)Nc2cccc(C(=O)NCc3ccco3)c2)c2ccccc21 [Compound 10, 3-(2-3-[(Furan-2-ylMethyl)-Carbamoyl]-Phenylcarbamoyl-Vinyl)-Indole-1-Carboxylic Acid-t-Butyl Ester]	60.22%	78.68%	produced smaller amounts of triglycerides than did the control; also recorded: highly inhibit the biosynthesis of triglyceride	49.2 ± 5.7%	inhibitory activity against DGAT (in words) [1]: potent inhibitory activity against DGAT in a dose-dependent manner; inhibition of the biosynthesis of triglycerides [2]: 50.8%; oral acute toxicity (in words) ([3]; administered once at a dose of up to 2,000 mg/kg): no oral acute toxicity; Mortality (No. of Dead/No of Tested) ([3]; single oral dose 2 g/kg in 0.5% CMC, monitored two weeks): 0/3; Body Weight (g) Day 0 ([3]; single oral dose 2 g/kg, Day 0, Mean ± SD): 36 ± 0.5 g; Body Weight (g) Day 1 ([3]; single oral dose 2 g/kg, Day 1, Mean ± SD): 38 ± 1.0 g; Body Weight (g) Day 3 ([3]; single oral dose 2 g/kg, Day 3, Mean ± SD): 38 ± 0.2 g; Body Weight (g) Day 7 ([3]; single oral dose 2 g/kg, Day 7, Mean ± SD): 39 ± 1.2 g; Body Weight (g) Day 14 ([3]; single oral dose 2 g/kg, Day 14, Mean ± SD): 42 ± 2.0 g
